For ten compounds, viability, inhibition and IC50 results are on record in ChEMBL document CHEMBL4004877, “Synthesis and biological evaluation of chalcone, dihydrochalcone, and 1,3-diarylpropane analogs as anti-inflammatory agents” (Bioorg Med Chem Lett, 2017).

≈ marks a conversion by molar mass, not a printed value.

By inhibition is commonly meant the change of the read-out against control, counted positive when it falls. A word on the IC50: it is the concentration that inhibits the measured activity by half.

Series [1] is described as follows: Cytotoxicity against LPS-stimulated mouse RAW264.7 cells assessed as cell viability at 5 ug/ml after 24 hrs by MTT assay relative to control. The following applies: LPS-stimulated RAW264.7 cells, read-out: Activity. It counts as cell-based. A general note: Formazan colour is commonly taken as a measure of viable cells.
A short description of series [2]: Cytotoxicity against LPS-stimulated mouse RAW264.7 cells assessed as cell viability at 2.5 ug/ml after 24 hrs by MTT assay relative to control. It counts as cell-based. Particulars: LPS-stimulated RAW264.7 cells, read-out: Activity.
Series [3] concerns RAW264.7. Description: Antiinflammatory activity in mouse RAW264.7 cells assessed as inhibition of LPS induced iNOS-dependent nitric oxide production at 5 ug/ml after 24 hrs by Griess assay relative to control. The following applies: RAW264.7, 24 h. It counts as functional.
Series [4] concerns RAW264.7. Put plainly: Antiinflammatory activity in mouse RAW264.7 cells assessed as inhibition of LPS induced iNOS-dependent nitric oxide production after 24 hrs by Griess assay. It counts as functional, cell-based. Particulars: RAW264.7, 24 h. Background: Nitrite, measured by Griess reagent, commonly stands in for NO production.
Series [5] is described as follows: Cytotoxicity against LPS-stimulated mouse RAW264.7 cells assessed as cell viability at 10 ug/ml after 24 hrs by MTT assay relative to control. It counts as cell-based. Particulars: LPS-stimulated RAW264.7 cells, read-out: Activity.
The subject of series [6] is RAW264.7. Description: Antiinflammatory activity in mouse RAW264.7 cells assessed as inhibition of LPS induced iNOS-dependent nitric oxide production at 10 ug/ml after 24 hrs by Griess assay relative to control. It counts as functional. The following applies: RAW264.7, 24 h.
The nature of series [7]: Cytotoxicity against LPS-stimulated mouse RAW264.7 cells assessed as cell viability at 1.25 ug/ml after 24 hrs by MTT assay relative to control. The following applies: LPS-stimulated RAW264.7 cells, read-out: Activity. The class given is cell-based.
The test system of series [8] is RAW264.7. Put plainly: Antiinflammatory activity in mouse RAW264.7 cells assessed as inhibition of LPS induced iNOS-dependent nitric oxide production at 1.25 ug/ml after 24 hrs by Griess assay relative to control. The class given is functional. The following applies: RAW264.7, 24 h.
Series [9] concerns RAW264.7. Description: Antiinflammatory activity in mouse RAW264.7 cells assessed as inhibition of LPS induced iNOS-dependent nitric oxide production at 2.5 ug/ml after 24 hrs by Griess assay relative to control. It counts as functional. Particulars: RAW264.7, 24 h.

Turning to `O=C(CCc1ccc2c(c1)OCO2)c1ccc(O)cc1`, in series [1], the viability at 24 h, 5 ug/ml was found to be 87.3%. In [2], the viability at 24 h, 2.5 ug/ml worked out at 89%. The inhibition at 5 µg/mL in series [3] stood at 24.8%. In addition, the IC50 in series [4] was determined as 8.72 µg/mL (≈ 32.3 µM). Besides, the viability at 24 h, 10 ug/ml in series [5] came to 82.9%. The inhibition at 10 µg/mL in [6] came to 56.2%. In addition, in [7], the viability at 24 h, 1.25 ug/ml was 95.1%. In series [8], the inhibition at 1.25 µg/mL came out at 2%. For the same compound, in series [9], the inhibition at 2.5 µg/mL is 19.8%.
With `COc1ccc(/C=C/C(=O)c2cccc(O)c2)cc1OC`, the viability at 24 h, 5 ug/ml in [1] was found to be 83.8%. In addition, the viability at 24 h, 2.5 ug/ml in series [2] stood at 91%. For the same compound, the inhibition at 5 µg/mL in [3] was 3.5%. Also, in [4], the IC50 turned out to be 8.38 µg/mL (≈ 29.5 µM). Besides, the viability at 24 h, 10 ug/ml in [5] came out at 63.9%. Moreover, the inhibition at 10 µg/mL in series [6] came to 65.9%. For the same compound, the viability at 24 h, 1.25 ug/ml in [7] came to 101%. Also, the inhibition at 1.25 µg/mL in [8] came out at 1.7%. The inhibition at 2.5 µg/mL in [9] is 3.3%.
Consider `COc1ccc(CCC(=O)c2cccc(O)c2)c(OC)c1`, for which the viability at 24 h, 5 ug/ml in series [1] was determined as 88.8%. Also, in series [2], the viability at 24 h, 2.5 ug/ml was 88.5%. Besides, in [3], the inhibition at 5 µg/mL turned out to be 25.4%. Besides, the 50% inhibitory concentration (IC50) in series [4] came to 9.42 µg/mL (≈ 32.9 µM). Moreover, the viability at 24 h, 10 ug/ml in series [5] was determined as 74.8%. Moreover, the inhibition at 10 µg/mL in [6] was found to be 52.3%. Moreover, the viability at 24 h, 1.25 ug/ml in series [7] came out at 92.1%. Further, the inhibition at 1.25 µg/mL in series [8] is 7.9%. For the same compound, the inhibition at 2.5 µg/mL in [9] came out at 17.1%.
`COc1ccc(OC)c(/C=C/C(=O)c2cccc(O)c2)c1`: in series [1], the viability at 24 h, 5 ug/ml worked out at 67.3%. The viability at 24 h, 2.5 ug/ml in [2] was determined as 72.4%. The inhibition at 5 µg/mL in [3] was 52.4%. Besides, in series [4], the IC50 was 2.42 µg/mL (≈ 8.51 µM). The viability at 24 h, 10 ug/ml in [5] amounted to 62.5%. In addition, the inhibition at 10 µg/mL in series [6] stood at 77.1%. Moreover, in series [7], the viability at 24 h, 1.25 ug/ml came out at 99%. For the same compound, the inhibition at 1.25 µg/mL in series [8] was 2.8%. In addition, the inhibition at 2.5 µg/mL in [9] came out at 52.3%.
In the case of `COc1ccc(CCCc2ccc3c(c2)OCO3)c(O)c1`, in series [1], the viability at 24 h, 5 ug/ml was 71.4%. Moreover, the viability at 24 h, 2.5 ug/ml in series [2] came out at 95.3%. Also, the inhibition at 5 µg/mL in [3] was 54.1%. Also, the half-inhibitory concentration (IC50) in series [4] worked out at 4.12 µg/mL (≈ 14.4 µM). In addition, the viability at 24 h, 10 ug/ml in series [5] amounted to 15.6%. In addition, the inhibition at 10 µg/mL in series [6] came out at 85.9%. Besides, the viability at 24 h, 1.25 ug/ml in series [7] amounted to 97.5%. Further, in [8], the inhibition at 1.25 µg/mL is 32.6%. In addition, the inhibition at 2.5 µg/mL in series [9] came out at 39.4%.
For `COc1cc(C(=O)/C=C/c2ccc3c(c2)OCO3)ccc1O`, the viability at 24 h, 5 ug/ml in [1] stood at 81.1%. Also, in series [2], the viability at 24 h, 2.5 ug/ml is 85.3%. Also, in series [3], the inhibition at 5 µg/mL amounted to 49.1%. Moreover, the half-maximal inhibitory concentration (IC50) in series [4] was determined as 6.3 µg/mL (≈ 21.1 µM). For the same compound, in series [5], the viability at 24 h, 10 ug/ml worked out at 72.7%. The inhibition at 10 µg/mL in series [6] was 51.8%. In addition, in series [7], the viability at 24 h, 1.25 ug/ml turned out to be 100%. Also, the inhibition at 1.25 µg/mL in [8] was determined as 5.3%. In addition, the inhibition at 2.5 µg/mL in series [9] turned out to be 0.6%.
For the compound `COc1cccc(/C=C/C(=O)c2cccc(O)c2)c1OC`, the viability at 24 h, 5 ug/ml in series [1] stood at 57.8%. The viability at 24 h, 2.5 ug/ml in [2] stood at 70.8%. Further, in series [3], the inhibition at 5 µg/mL amounted to 52.4%. Moreover, in series [4], the half-inhibitory concentration (IC50) was 4.83 µg/mL (≈ 17 µM). In addition, in series [5], the viability at 24 h, 10 ug/ml came out at 32.8%. In addition, in series [6], the inhibition at 10 µg/mL was determined as 55.1%. Moreover, the viability at 24 h, 1.25 ug/ml in series [7] was 99.6%. Further, the inhibition at 1.25 µg/mL in series [8] is 1.8%. In addition, the inhibition at 2.5 µg/mL in [9] came to 3%.
On to `COc1ccc(CCC(=O)c2ccc(OC)c(OC)c2)cc1`, for which the viability at 24 h, 5 ug/ml in series [1] is 95.1%. The viability at 24 h, 2.5 ug/ml in series [2] worked out at 98.6%. For the same compound, the inhibition at 5 µg/mL in series [3] came out at 54.4%. Also, the IC50 in series [4] amounted to 4.35 µg/mL (≈ 14.5 µM). For the same compound, the viability at 24 h, 10 ug/ml in series [5] was found to be 90.6%. Besides, in series [6], the inhibition at 10 µg/mL stood at 57.2%. The viability at 24 h, 1.25 ug/ml in series [7] was found to be 99.1%. Further, in series [8], the inhibition at 1.25 µg/mL amounted to 14.1%. In series [9], the inhibition at 2.5 µg/mL was determined as 32.5%.
Turning to `COc1ccc(CCC(=O)c2cccc(O)c2)cc1`, the viability at 24 h, 5 ug/ml in [1] stood at 94.5%. Further, the viability at 24 h, 2.5 ug/ml in [2] came to 97.1%. For the same compound, the inhibition at 5 µg/mL in series [3] was found to be 20.1%. Moreover, in [4], the concentration for half-maximal inhibition (IC50) was over 10 µg/mL. For the same compound, the viability at 24 h, 10 ug/ml in [5] came out at 86.3%. In series [6], the inhibition at 10 µg/mL was 40.5%. Besides, the viability at 24 h, 1.25 ug/ml in series [7] came to 97.5%. For the same compound, the inhibition at 1.25 µg/mL in series [8] amounted to 5.1%. Moreover, in series [9], the inhibition at 2.5 µg/mL stood at 11%.
For `COc1ccc(CCCc2cccc(O)c2)c(OC)c1`, the viability at 24 h, 5 ug/ml in series [1] worked out at 95.9%. Besides, the viability at 24 h, 2.5 ug/ml in [2] was found to be 97%. In addition, the inhibition at 5 µg/mL in series [3] worked out at 24.6%. Further, in series [4], the half-inhibitory concentration (IC50) is 6.92 µg/mL (≈ 25.4 µM). The viability at 24 h, 10 ug/ml in [5] came to 67.9%. Also, in [6], the inhibition at 10 µg/mL was 78.8%. The viability at 24 h, 1.25 ug/ml in series [7] came to 98.5%. Besides, the inhibition at 1.25 µg/mL in [8] was 16.2%. Further, the inhibition at 2.5 µg/mL in series [9] turned out to be 18%.
